Laboratory results: patent US20230041743A1, “1,8-NAPHTHYRIDIN-2-ONE COMPOUNDS FOR THE TREATMENT OF AUTOIMMUNE DISEASE” (Hoffmann-La Roche Inc., priority 2019, published 2023)
pIC50: −log10 of the molar value.

What was measured:
human TLR9 = target: T1, human TLR9 (Homo sapiens, UniProt Q9NR96); assay: HEK293-Blue-hTLR-9 cells assay (SEAP reporter, ODN2006 stimulation); format: cell-based; conditions: HEK293-Blue-hTLR9 cells, ODN2006 ligand, 20 hrs incubation; read-out: HEK/hTLR9 IC50
T1 construct: host or cells: HEK293 (HEK-Blue hTLR9)
T1 sequence (Q9NR96 26-1032): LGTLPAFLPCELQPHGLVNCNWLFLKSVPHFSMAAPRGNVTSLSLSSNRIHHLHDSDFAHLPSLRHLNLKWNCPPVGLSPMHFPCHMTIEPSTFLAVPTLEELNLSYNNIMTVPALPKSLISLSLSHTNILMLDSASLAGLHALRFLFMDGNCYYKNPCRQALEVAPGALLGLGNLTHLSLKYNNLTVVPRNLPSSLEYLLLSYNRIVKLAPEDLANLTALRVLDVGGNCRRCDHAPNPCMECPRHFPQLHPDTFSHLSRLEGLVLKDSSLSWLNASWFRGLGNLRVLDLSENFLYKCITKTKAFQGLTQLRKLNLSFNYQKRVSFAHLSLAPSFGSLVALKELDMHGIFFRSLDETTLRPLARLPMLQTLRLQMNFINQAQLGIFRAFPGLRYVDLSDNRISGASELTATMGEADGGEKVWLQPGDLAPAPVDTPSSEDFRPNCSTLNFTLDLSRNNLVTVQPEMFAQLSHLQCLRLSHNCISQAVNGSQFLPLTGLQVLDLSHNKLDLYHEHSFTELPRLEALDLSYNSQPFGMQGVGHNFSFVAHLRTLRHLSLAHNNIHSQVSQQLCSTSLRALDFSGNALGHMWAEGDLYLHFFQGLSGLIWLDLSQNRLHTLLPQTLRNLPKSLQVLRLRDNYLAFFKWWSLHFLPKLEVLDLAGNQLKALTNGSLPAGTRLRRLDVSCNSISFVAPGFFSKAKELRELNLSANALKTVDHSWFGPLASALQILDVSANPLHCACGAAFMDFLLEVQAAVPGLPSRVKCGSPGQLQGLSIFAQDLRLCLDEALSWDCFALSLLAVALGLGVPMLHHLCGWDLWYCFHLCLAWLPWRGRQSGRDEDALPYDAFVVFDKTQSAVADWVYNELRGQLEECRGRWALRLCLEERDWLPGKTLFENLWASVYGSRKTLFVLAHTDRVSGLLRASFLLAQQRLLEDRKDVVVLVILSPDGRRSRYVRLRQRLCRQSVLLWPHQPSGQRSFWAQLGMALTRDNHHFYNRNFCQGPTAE
From the text: HEK293-Blue-hTLR-9 Cells Assay:
A stable HEK293-Blue-hTLR-9 cell line was purchased from InvivoGen (Cat. #: hkb-htlr9, San Diego, Calif., USA). These cells were originally designed for studying the stimulation of human TLR9 by monitoring the activation of NF-κB. A SEAP (secreted embryonic alkaline phosphatase) reporter gene was placed under the control of the IFN-β minimal promoter fused to five NF-κB and AP-1-binding sites. The SEAP was induced by activating NF-κB and AP-1 via stimulating HEK-Blue hTLR9 cells with TLR9 ligands. Therefore the reporter expression was declined by TLR9 antagonist under the stimulation of a ligand, such as ODN2006 (Cat. #: tlrl-2006-1, Invivogen, San Diego, Calif., USA), for incubation of 20 hrs. The cell culture supernatant SEAP reporter activity was determined using QUANTI-Blue™ kit (Cat. #: rep-qb1, Invivogen, San Diego, Calif., USA) at a wavelength of 640 nm, a detection medium that turns purple or blue in the presence of alkaline phosphatase.
HEK293-Blue-hTLR9 cells were incubated at a density of 250,000˜450,000 cells/mL in a volume of 170 μL in a 96-well plate in Dulbecco's Modified Eagle's medium (DMEM) containing 4.5 g/L glucose, 50 U/mL penicillin, […], 2 mM L-glutamine, 10% (v/v) heat-inactivated fetal bovine serum with addition of 20 μL test compound in a serial dilution in the presence of final DMSO at 1% and 10 μL of 20 uM ODN2006 in above DMEM, perform incubation under 37° C. in a CO2 incubator for 20 hrs. Then 20 μL of the supernatant from each well was incubated with 180 μL Quanti-blue substrate solution at 37° C. for 2 h and the absorbance was read at 620˜655 nm using a spectrophotometer. The signaling pathway that TLR9 activation leads to downstream NF-κB activation has been widely accepted, and therefore similar reporter assay was modified for evaluating TLR9 antagonist.

[1] = Human microsomal stability assay; format: in vitro ADME; conditions: human liver microsomes, 1 μM test compound, 0.5 mg/mL protein, 37° C.; low <7.0, medium 7.0-16.2, high 16.2-23.2
Experimental: Human Microsomal Stability Assay
Human liver microsomes (Cat. NO.: 452117, Corning, USA) were preincubated with test compound for 10 minutes at 37° C. in 100 mM potassium phosphate buffer, pH 7.4. The reactions were initiated by adding NADPH regenerating system. The final incubation mixtures contained 1 μM test compound, 0.5 mg/mL liver microsomal protein, 1 mM MgCl2, 1 mM NADP, 1 unit/mL isocitric dehydrogenase and 6 mM isocitric acid in 100 mM potassium phosphate buffer, pH 7.4. After incubation times of 0, 3, 6, 9, 15 and 30 minutes at 37° C., 300 μL of cold ACN (including internal standard) was added to 100 μL incubation mixture to terminate the reaction. Following precipitation and centrifugation, 100 uL supernatant will be taken out and added 300 uL water.
The amount of compound remaining in the samples was determined by LC-MS/MS. Controls of no NADPH regenerating system at zero and 30 minutes were also prepared and analyzed. The results were categorized as: low (<7.0 mL/min/kg), medium (7.0-16.2 mL/min/kg) and high (16.2-23.2 mL/min/kg).

| SMILES | pIC50 (human TLR9) | CL (h) [1] [mL/min/kg] |
| --- | --- | --- |
| C[C@@H]1CN(c2cc(=O)n(C)c3ncccc23)C[C@@H]2c3ccc(N4C[C@@H](N)[C@@H](F)C4)cc3CN12 [Example 7, 4-[(4R,10bS)-8-[(3R,4S)-3-amino-4-fluoro-pyrrolidin-1-yl]-4-methyl-3,4,6,10b-tetrahydro-1H-pyrazino[2,1-a]isoindol-2-yl]-1-methyl-1,8-naphthyridin-2-one] | 6.61 | 9.4 |
| CO[C@@H]1CN(c2ccc3c(c2)CN2[C@H](C)CN(c4cc(=O)n(C)c5ncccc45)C[C@H]32)C[C@H]1N [Example 5, 4-[(4R,10bS)-8-[(3R,4R)-3-amino-4-methoxy-pyrrolidin-1-yl]-4-methyl-3,4,6,10b-tetrahydro-1H-pyrazino[2,1-a]isoindol-2-yl]-1-methyl-1,8-naphthyridin-2-one] | 6.59 | 7.8 |
| C[C@@H]1CN(c2cc(=O)n(C)c3ncccc23)C[C@@H]2c3ccc(N4CC[C@@](C)(N)C4)cc3CN12 [Example 4, 4-[(4R,10bS)-8-[(3R)-3-amino-3-methyl-pyrrolidin-1-yl]-4-methyl-3,4,6,10b-tetrahydro-1H-pyrazino[2,1-a]isoindol-2-yl]-1-methyl-1,8-naphthyridin-2-one] | 6.90 | 6.3 |
| CCn1c(=O)cc(N2C[C@@H](C)N3Cc4cc(N5C[C@@H](N)[C@H](OC)C5)ccc4[C@H]3C2)c2cccnc21 [Example 29, 4-[(4R,10bS)-8-[(3R,4R)-3-amino-4-methoxy-pyrrolidin-1-yl]-4-methyl-3,4,6,10b-tetrahydro-1H-pyrazino[2,1-a]isoindol-2-yl]-1-ethyl-1,8-naphthyridin-2-one] | 6.47 | 6.4 |
| CO[C@H]1CCN(c2ccc3c(c2)CN2[C@H](C)CN(c4cc(=O)n(C)c5ncccc45)C[C@H]32)C[C@@H]1N [Example 9, 4-[(4R,10bS)-8-[(3S,4S)-3-amino-4-methoxy-1-piperidyl]-4-methyl-3,4,6,10b-tetrahydro-1H-pyrazino[2,1-a]isoindol-2-yl]-1-methyl-1,8-naphthyridin-2-one] | 6.58 | 8.8 |
| C[C@@H]1CN(c2cc(=O)n(C)c3ncccc23)C[C@@H]2c3ccc(OCCN(C)C)cc3CN12 [Example 23, 4-[(4R,10bS)-8-[2-(dimethylamino)ethoxy]-4-methyl-3,4,6,10b-tetrahydro-1H-pyrazino[2,1-a]isoindol-2-yl]-1-methyl-1,8-naphthyridin-2-one] | 6.67 | 6.2 |
| C[C@@H]1CN(c2cc(=O)n(C)c3ncccc23)C[C@@H]2c3ccc(C4CCCNC4)cc3CN12 (stereo partly drawn) [Example 25, 4-[(4R,10bS)-4-methyl-8-(3-piperidyl)-3,4,6,10b-tetrahydro-1H-pyrazino[2,1-a]isoindol-2-yl]-1-methyl-1,8-naphthyridin-2-one] | 6.91 | 6.2 |

Continued by rising pIC50 (human TLR9), values first:

| pIC50 (human TLR9) | CL (h) [1] [mL/min/kg] | SMILES |
| --- | --- | --- |
| 6.73 | 7.9 | C[C@@H]1CN(c2cc(=O)n(C)c3ncccc23)C[C@@H]2c3ccc(N4CCN[C@@H](C)C4)cc3CN12 [Example 13, 4-[(4R,10bS)-4-methyl-8-[(3S)-3-methylpiperazin-1-yl]-3,4,6,10b-tetrahydro-1H-pyrazino[2,1-a]isoindol-2-yl]-1-methyl-1,8-naphthyridin-2-one] |
| 6.79 | 6.2 | C[C@@H]1CN(c2cc(=O)n(C)c3ncccc23)C[C@@H]2c3ccc(N4CCC(C)(N)CC4)cc3CN12 [Example 18, 4-[(4R,10bS)-8-(4-amino-4-methyl-1-piperidyl)-4-methyl-3,4,6,10b-tetrahydro-1H-pyrazino[2,1-a]isoindol-2-yl]-1-methyl-1,8-naphthyridin-2-one] |
| 6.81 | 6.2 | C[C@@H]1CN(c2cc(=O)n(C)c3ncccc23)C[C@@H]2c3ccc(C4CCNCC4)cc3CN12 [Example 24, 4-[(4R,10bS)-4-methyl-8-(4-piperidyl)-3,4,6,10b-tetrahydro-1H-pyrazino[2,1-a]isoindol-2-yl]-1-methyl-1,8-naphthyridin-2-one] |
| 6.94 | 6.2 | C[C@@H]1CN(c2cc(=O)n(C)c3ncccc23)C[C@@H]2c3ccc(N4C[C@@H]5C[C@H]4CN5)cc3CN12 [Example 19, 4-[(4R,10bS)-8-[(1S,4S)-2,5-diazabicyclo[2.2.1]heptan-2-yl]-4-methyl-3,4,6,10b-tetrahydro-1H-pyrazino[2,1-a]isoindol-2-yl]-1-methyl-1,8-naphthyridin-2-one] |
| 7.00 | 7.3 | C[C@@H]1CN(c2cc(=O)n(C)c3ncccc23)C[C@@H]2c3ccc([C@H]4CC[C@H](N5CCOCC5)CC4)cc3CN12 [Example 27A, 4-[(4R,10bS)-4-methyl-8-(trans-4-morpholinocyclohexyl)-3,4,6,10b-tetrahydro-1H-pyrazino[2,1-a]isoindol-2-yl]-1-methyl-1,8-naphthyridin-2-one] |
| 7.02 | 6.2 | C[C@@H]1CN(c2cc(=O)n(C)c3ncccc23)C[C@@H]2c3ccc(N4C[C@H]5C[C@@H]4CN5)cc3CN12 [Example 20, 4-[(4R,10bS)-8-[(1R,4R)-2,5-diazabicyclo[2.2.1]heptan-2-yl]-4-methyl-3,4,6,10b-tetrahydro-1H-pyrazino[2,1-a]isoindol-2-yl]-1-methyl-1,8-naphthyridin-2-one] |
| 7.06 | 6.9 | C[C@@H]1CN(c2cc(=O)n(C)c3ncccc23)C[C@@H]2c3ccc(N4CCOC5(CNC5)C4)cc3CN12 [Example 11, 4-[(4R,10bS)-4-methyl-8-(5-oxa-2,8-diazaspiro[3.5]nonan-8-yl)-3,4,6,10b-tetrahydro-1H-pyrazino[2,1-a]isoindol-2-yl]-1-methyl-1,8-naphthyridin-2-one] |
| 7.08 | 8.0 | C[C@@H]1CN(c2cc(=O)n(C)c3ncccc23)C[C@@H]2c3ccc(N4CCC[C@](C)(N)C4)cc3CN12 [Example 15, 4-[(4R,10bS)-8-[(3S)-3-amino-3-methyl-1-piperidyl]-4-methyl-3,4,6,10b-tetrahydro-1H-pyrazino[2,1-a]isoindol-2-yl]-1-methyl-1,8-naphthyridin-2-one] |
